The subject of assay [1] is murine B16F10 melanoma cell line. Put plainly: B16F10 IFNγ-induced cellular growth inhibition assay (xCELLigence RTCA). It is filed as cell-based. The note with it: Mus musculus, B16-F10, 48 h; read-out: B16 IFNγ Mediated Growth Inhibition Assay: AVG IC50. Here is the method: Example B: B16F10 Cellular Growth Inhibition Assay Compound activity was determined using an interferon gamma (IFNγ)-induced cellular growth inhibition assay with the murine B16F10 melanoma cell line on an Agilent xCELLigence Real-Time Cell Analysis platform (RTCA). RTCA E-Plate View 96 plates (Agilent, 300601010) were pre-equilibrated with 50 μL of assay media (DMEM+10% FBS, Gibco 10566-024, Gibco 10082-147) at 37° C. in a humidified incubator before taking an initial measurement of impedance (sweep). B16F10 cells cultured in assay media were dissociated with TrypLE Express (Gibco 12605-010) for five minutes at 37° C., diluted in 3 volumes of assay buffer, centrifuged for 5 minutes at 500×g at room temperature before diluting cells to 7,700 cells/mL in assay media, plating 130 μL/well (1,000 cells/well) in the inner 60 wells of the assay plate, and adding 150 μL of assay media to the outer wells of the plate. Cells were incubated at room temperature for 20 min to allow cells to settle before placing them in the xCELLigence reader and incubating overnight at 37° C., sweeping wells every 15 minutes. After 24 hours, well readings were paused, plates were removed from the incubator and compounds were added using a Tecan D300e dispenser. All wells were normalized to a final concentration of 0.5% DMSO. Following a 30 min incubation at 37° C., recombinant mouse IFNγ (R&D Systems™ 485MI100) was diluted to 10 ng/mL in assay media and 20 μL was added to assay wells (1 ng/mL final concentration). Assay plates were placed in the xCELLigence reader and swept every 15 minutes. After 48 hours, well readings were normalized to the time point immediately preceding compound addition and the area under the growth curve (AUC) was calculated by the RTCA software and exported.

The target in assay [2] is untagged, full-length human PTPN2 (TC45) (1-387) protein (Homo sapiens (Human), UniProt P17706). Briefly: Enzymatic assay used to determine potency of PTPN2 inhibitors (DiFMUP substrate). It is filed as biochemical. The conditions noted are these: 0.5 nM PTPN2, 100 μM DiFMUP, 30 min at room temperature. The text has this: Compounds were subsequently added using a Tecan D300e dispenser. […] A four-parameter curve fit was used to determine IC50 values from % inhibition data.
Chain of untagged, full-length human PTPN2 (TC45) (1-387) protein (P17706 other isoform, or with tags, fused parts or gaps): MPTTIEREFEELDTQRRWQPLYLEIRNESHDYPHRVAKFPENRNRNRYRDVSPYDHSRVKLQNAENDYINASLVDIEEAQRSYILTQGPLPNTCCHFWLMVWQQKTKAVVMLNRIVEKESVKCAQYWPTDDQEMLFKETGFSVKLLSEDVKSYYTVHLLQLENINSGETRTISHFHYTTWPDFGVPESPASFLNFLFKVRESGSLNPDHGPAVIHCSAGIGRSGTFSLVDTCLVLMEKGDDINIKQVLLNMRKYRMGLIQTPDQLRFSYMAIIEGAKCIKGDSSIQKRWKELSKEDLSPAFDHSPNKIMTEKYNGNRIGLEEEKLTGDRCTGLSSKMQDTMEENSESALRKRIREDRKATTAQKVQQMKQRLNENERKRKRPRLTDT

This note sets out measurements from patent US20250129032A1 (Nerio Therapeutics, Inc., priority 2022, published 2025).

The IC50 is the point on the concentration scale where inhibition reaches its midpoint. With `CCNC1CCc2cc(O)c(N3CC(=O)NS3(=O)=O)c(F)c2CC1` (stereo not shown) [Example 5], the IC50 is 2490 nM in assay [1] and 17.5 nM in assay [2].

`CN(C)[C@H]1CCc2cc(O)c(N3CC(=O)NS3(=O)=O)c(F)c2CC1` (single isomer, unassigned) [Example 18]: the figures for the 50% inhibitory concentration (IC50) in assay [1] and in assay [2] were more than 100000 nM and 879 nM, respectively.

Regarding `CC(C)CCN(C)C1CCCc2cc(O)c(N3CC(=O)NS3(=O)=O)c(F)c2C1` (stereo not shown) [Example 28, 5-(1-fluoro-3-hydroxy-8-(isopentyl(methyl)amino)-6,7,8,9-tetrahydro-5H-benzo[7]annulen-2-yl)-1,2,5-thiadiazolidin-3-one 1,1-dioxide], the IC50 in assay [1] was more than 61200 nM; in assay [2], 39.9 nM.

Regarding `O=C1CN(c2c(O)cc3c(c2F)CC[C@H](N2CCCC2)CC3)S(=O)(=O)N1` (single isomer, unassigned) [Example 15], the results for the IC50 in assay [1] and in assay [2] were 16800 nM and 79.5 nM, respectively.

In the case of `CC(C)CCN[C@@H]1CCCc2cc(O)c(N3CC(=O)NS3(=O)=O)c(F)c2C1` (single isomer, unassigned) [Example 27], the IC50 is more than 71100 nM in assay [1] and 215 nM in assay [2].

`O=C1CN(c2c(O)cc3c(c2F)CC[C@H](N2CCC4(CCC4)C2)CC3)S(=O)(=O)N1` (single isomer, unassigned) [Example 17]: the IC50 stood at 13500 nM in assay [1] and 93 nM in assay [2].

On to `CN(C)C1CCc2cc(O)c(N3CC(=O)NS3(=O)=O)c(F)c2CC1` (stereo not shown) [Example 4], for which the values for the IC50 in assay [1] and in assay [2] were 2890 nM and 14.9 nM, respectively.

Turning to `CCN[C@H]1CCc2cc(O)c(N3CC(=O)NS3(=O)=O)c(F)c2CC1` (single isomer, unassigned) [Example 20], the IC50 is 4130 nM in assay [1] and 12.7 nM in assay [2].

With `O=C1CN(c2c(O)cc3c(c2F)CC[C@@H](N2CCC4(CCC4)C2)CC3)S(=O)(=O)N1` (single isomer, unassigned) [Example 16], the IC50 in assay [1] came out at 6660 nM; in assay [2], 10.7 nM.

Take `CNC[C@@H]1CCc2cc(O)c(N3CC(=O)NS3(=O)=O)c(F)c2CC1` (single isomer, unassigned) [Example 24]: in assay [2], the half-maximal inhibitory concentration (IC50) is 75 nM.

In the case of `O=C1CN(c2c(O)cc3c(c2F)CC[C@@H](NCCC2CCCC2)CC3)S(=O)(=O)N1` (single isomer, unassigned) [Example 10], the IC50 was 6630 nM in assay [1] and 5 nM in assay [2].

Turning to `CNC1CCc2cc(O)c(N3CC(=O)NS3(=O)=O)c(F)c2CC1` (stereo not shown) [Example 3], the 50% inhibitory concentration (IC50) turned out to be 5140 nM in assay [1] and 16.5 nM in assay [2].

In assay [2], `CN(C)CCC1CCc2cc(O)c(N3CC(=O)NS3(=O)=O)c(F)c2CC1` (stereo not shown) [Example 33] gave an IC50 of 21.1 nM.

As for `O=C1CN(c2c(O)cc3c(c2F)CCC(O)CC3)S(=O)(=O)N1` (stereo not shown) [Example 8], the IC50 is 1590 nM in assay [1] and 47.3 nM in assay [2].

For the compound `O=C1CN(c2c(O)cc3c(c2F)CCNCC3)S(=O)(=O)N1` [Example 30, 5-(6-fluoro-8-hydroxy-2,3,4,5-tetrahydro-1H-benzo[d]azepin-7-yl)-1,2,5-thiadiazolidin-3-one 1,1-dioxide], the results for the half-inhibitory concentration (IC50) in assay [1] and in assay [2] were 996 nM and 2.28 nM, respectively.

Regarding `O=C1CN(c2c(O)cc3c(c2F)CCC(N2CCCC2)CC3)S(=O)(=O)N1` (stereo not shown) [Example 9], the IC50 in assay [1] amounted to 4150 nM; in assay [2] it was 21.6 nM.

As for `N[C@H]1CCc2cc(O)c(N3CC(=O)NS3(=O)=O)c(F)c2CC1` (single isomer, unassigned) [Example 6], the IC50 is 1630 nM in assay [1] and 5.67 nM in assay [2].

`CC(C)CCCN1CCc2cc(O)c(N3CC(=O)NS3(=O)=O)c(F)c2CC1` [Example 31, 5-(6-fluoro-8-hydroxy-3-(4-methylpentyl)-2,3,4,5-tetrahydro-1H-benzo[d]azepin-7-yl)-1,2,5-thiadiazolidin-3-one 1,1-dioxide]: the concentration for half-maximal inhibition (IC50) in assay [1] stood at 1730 nM; in assay [2] it was 1.06 nM.

As to `O=C1CN(c2c(O)cc3c(c2F)CCCCC3)S(=O)(=O)N1` [Example 29, 5-(1-fluoro-3-hydroxy-6,7,8,9-tetrahydro-5H-benzo[7]annulen-2-yl)-1,2,5-thiadiazolidin-3-one 1,1-dioxide], the IC50 was 13600 nM in assay [1] and 109 nM in assay [2].

With `CC(C)(C)NC1CCc2cc(O)c(N3CC(=O)NS3(=O)=O)c(F)c2CC1` (stereo not shown) [Example 13], the results for the IC50 in assay [1] and in assay [2] were more than 100000 nM and 85.3 nM, respectively.

For `CC(C)CCNC1CCc2cc(O)c(N3CC(=O)NS3(=O)=O)c(F)c2CC1` (stereo not shown) [Example 22], the IC50 in assay [2] stood at 24.5 nM.

Regarding `CC(C)CCNC1CCCc2cc(O)c(N3CC(=O)NS3(=O)=O)c(F)c2C1` (stereo not shown) [Example 25, 5-(1-fluoro-3-hydroxy-8-(isopentylamino)-6,7,8,9-tetrahydro-5H-benzo[7]annulen-2-yl)-1,2,5-thiadiazolidin-3-one 1,1-dioxide], the values for the half-inhibitory concentration (IC50) in assay [1] and in assay [2] were 7080 nM and 25.9 nM, respectively.

On to `CNC[C@H]1CCc2cc(O)c(N3CC(=O)NS3(=O)=O)c(F)c2CC1` (single isomer, unassigned) [Example 23], for which the IC50 in assay [1] was found to be 2160 nM; in assay [2] it was 2 nM.

As to `CCN[C@@H]1CCc2cc(O)c(N3CC(=O)NS3(=O)=O)c(F)c2CC1` (single isomer, unassigned) [Example 21], the IC50 in assay [1] came to 54000 nM; in assay [2], 374 nM.

Take `O=C1CN(c2c(O)cc3c(c2F)CC[C@@H](N2CCCC2)CC3)S(=O)(=O)N1` (single isomer, unassigned) [Example 14]: the half-maximal inhibitory concentration (IC50) in assay [1] is 15200 nM; in assay [2], 13.6 nM.

As for `O=C1CN(c2c(O)cc3c(c2F)CCC(NC2CCCC2)CC3)S(=O)(=O)N1` (stereo not shown) [Example 12], the 50% inhibitory concentration (IC50) was 4060 nM in assay [1] and 19.8 nM in assay [2].

Regarding `O=C1CN(c2c(O)cc3c(c2F)CC[C@H](NCCC2CCCC2)CC3)S(=O)(=O)N1` (single isomer, unassigned) [Example 11], the IC50 in assay [1] was more than 100000 nM; in assay [2], 149 nM.

`CN(C)[C@@H]1CCc2cc(O)c(N3CC(=O)NS3(=O)=O)c(F)c2CC1` (single isomer, unassigned) [Example 19]: the IC50 in assay [1] stood at 2690 nM; in assay [2], 12.4 nM.

Take `N#CCC1CCc2cc(O)c(N3CC(=O)NS3(=O)=O)c(F)c2CC1` (stereo not shown) [Example 32]: the half-inhibitory concentration (IC50) came to 14900 nM in assay [1] and 46.9 nM in assay [2].

Consider `CC(C)CCN[C@H]1CCCc2cc(O)c(N3CC(=O)NS3(=O)=O)c(F)c2C1` (single isomer, unassigned) [Example 26], for which the IC50 in assay [1] is 5020 nM; in assay [2] it was 19.8 nM.

On to `N[C@@H]1CCc2cc(O)c(N3CC(=O)NS3(=O)=O)c(F)c2CC1` (single isomer, unassigned) [Example 7], for which the concentration for half-maximal inhibition (IC50) in assay [1] is more than 100000 nM; in assay [2] it was 444 nM.

Take `NCC[C@@H]1CCc2cc(O)c(N3CC(=O)NS3(=O)=O)c(F)c2CC1` (single isomer, unassigned) [Example 1]: in assay [2], the IC50 turned out to be 5.07 nM.

In the case of `NCC[C@H]1CCc2cc(O)c(N3CC(=O)NS3(=O)=O)c(F)c2CC1` (single isomer, unassigned) [Example 2], in assay [2], the half-maximal inhibitory concentration (IC50) worked out at 176 nM.
